Several values for one entry are separate records, joined by “and”; a condition that tells them apart may be missing. Equal values may be shown once. Toxic doses and inconclusive results are not listed. How the source made its calls: active means survival T/C of 150% or more; inactive means T/C below 125% in these data.
Test system: P388 leukemia ip, CD2F1 mice, survival T/C
Experiment: NCI In Vivo Anticancer Drug Screen. Data for tumor model P388 Leukemia (intraperitoneal) in CD2F1 (CDF1) mice
Conditions: endpoint: median survival time, higher = longer survival
In short: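 Mice carrying the transplanted tumor received test compound or vehicle. Survival was recorded in each group, and the value is the treated-group measurement divided by that of the vehicle-treated control group.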

[1] = dose: 50.0 mg/kg/injection, schedule: Q01DX005 (ip), vehicle: saline with Tween-80
[2] = dose: 100.0 mg/kg/injection, schedule: Q01DX005 (ip), vehicle: saline with Tween-80
[3] = dose: 200.0 mg/kg/injection, schedule: Q01DX005 (ip), vehicle: saline with Tween-80
[4] = dose: 3.12 mg/kg/injection, schedule: Q01DX009 (ip), vehicle: saline
[5] = dose: 6.25 mg/kg/injection, schedule: Q01DX009 (ip), vehicle: saline
[6] = dose: 12.5 mg/kg/injection, schedule: Q01DX009 (ip), vehicle: saline
[7] = dose: 100.0 mg/kg/injection, schedule: Q01DX001 (ip), vehicle: Klucel (hydroxypropylcellulose) (HPC)
[8] = dose: 25.0 mg/kg/injection, schedule: Q01DX009 (ip), vehicle: saline
[9] = dose: 50.0 mg/kg/injection, schedule: Q01DX009 (ip), vehicle: saline
[10] = dose: 100.0 mg/kg/injection, schedule: Q01DX009 (ip), vehicle: saline
[11] = dose: 200.0 mg/kg/injection, schedule: Q01DX009 (ip), vehicle: saline
[12] = dose: 400.0 mg/kg/injection, schedule: Q01DX009 (ip), vehicle: saline
[13] = dose: 1.56 mg/kg/injection, schedule: Q01DX009 (ip), vehicle: saline
[14] = dose: 100.0 mg/kg/injection, schedule: Q04DX002 (ip), vehicle: saline with Tween-80
[15] = dose: 200.0 mg/kg/injection, schedule: Q04DX002 (ip), vehicle: saline with Tween-80

Measured: T/C

CCN(CC)CCOc1c(Cl)cc(Cl)cc1Cl
inactive: [1] 93 % of control | [2] 111 % of control | [3] 111 % of control

Cc1cnc(C)c(NN=O)n1
inactive: [4] 101 % of control and 108 % of control | [5] 116 % of control and 122 % of control | [6] 117 % of control

CSC(=S)n1nc(-c2ccccc2)c(N=Nc2ccccc2[N+](=O)[O-])c1C
inactive: [7] 98 % of control | dose: 200.0 mg/kg/injection, schedule: Q01DX001 (ip), vehicle: Klucel (hydroxypropylcellulose) (HPC) 102 % of control | dose: 400.0 mg/kg/injection, schedule: Q01DX001 (ip), vehicle: Klucel (hydroxypropylcellulose) (HPC) 103 % of control

NC(=S)c1ncn(C2OC(CO)C(O)C2O)c1N (stereo not drawn)
inactive: [6] 104 % of control | [8] 101 % of control | [9] 101 % of control | [10] 112 % of control | [11] 112 % of control | [12] 101 % of control

CSC(=S)N/N=C(\C)c1ccccc1
inactive: [13] 99 % of control | [4] 100 % of control | [5] 94 % of control and 97 % of control | [10] 98 % of control | [11] 90 % of control

Cc1ccc(OP(=O)(Oc2ccc(C)cc2)Oc2ccc(C)cc2)cc1.Cc1ccc(OP(=O)(Oc2ccc(C)cc2)Oc2ccc(C)cc2)cc1.[Cl][Ni][Cl]
inactive: dose: 12.5 mg/kg/injection, schedule: Q04DX003 (ip), vehicle: Klucel (hydroxypropylcellulose) (HPC) 102 % of control | dose: 25.0 mg/kg/injection, schedule: Q04DX003 (ip), vehicle: Klucel (hydroxypropylcellulose) (HPC) 100 % of control and 109 % of control and 114 % of control | dose: 50.0 mg/kg/injection, schedule: Q04DX003 (ip), vehicle: Klucel (hydroxypropylcellulose) (HPC) 100 % of control and 102 % of control

CCC(C)/[N+]([O-])=N\O (stereo not drawn)
inactive: dose: 3.0 mg/kg/injection, schedule: Q01DX005 (ip), vehicle: Klucel (hydroxypropylcellulose) (HPC) 98 % of control | dose: 6.0 mg/kg/injection, schedule: Q01DX005 (ip), vehicle: Klucel (hydroxypropylcellulose) (HPC) 91 % of control | dose: 12.0 mg/kg/injection, schedule: Q01DX005 (ip), vehicle: Klucel (hydroxypropylcellulose) (HPC) 100 % of control | dose: 24.0 mg/kg/injection, schedule: Q01DX005 (ip), vehicle: Klucel (hydroxypropylcellulose) (HPC) 97 % of control

CC(C)(C)OC(=O)c1ccc(C(=O)OC(C)(C)C)cc1
inactive: [14] 97 % of control | [15] 96 % of control | dose: 400.0 mg/kg/injection, schedule: Q04DX002 (ip), vehicle: saline with Tween-80 96 % of control

CC(=O)OC1CCC2(C)C(=CCC3C2CCC2(C)C3CC3ON=C(C)C32)C1 (stereo not drawn)
inactive: dose: 12.5 mg/kg/injection, schedule: Q01DX005 (ip), vehicle: Klucel (hydroxypropylcellulose) (HPC) 101 % of control | dose: 25.0 mg/kg/injection, schedule: Q01DX005 (ip), vehicle: Klucel (hydroxypropylcellulose) (HPC) 99 % of control | dose: 50.0 mg/kg/injection, schedule: Q01DX005 (ip), vehicle: Klucel (hydroxypropylcellulose) (HPC) 98 % of control | dose: 100.0 mg/kg/injection, schedule: Q01DX005 (ip), vehicle: Klucel (hydroxypropylcellulose) (HPC) 86 % of control | dose: 200.0 mg/kg/injection, schedule: Q01DX005 (ip), vehicle: Klucel (hydroxypropylcellulose) (HPC) 86 % of control

O=C(c1ccccc1)c1ccc2c(c1)-c1ccccc1-2
inactive: dose: 100.0 mg/kg/injection, schedule: Q01DX009 (ip), vehicle: saline with Tween-80 100 % of control | dose: 200.0 mg/kg/injection, schedule: Q01DX009 (ip), vehicle: saline with Tween-80 104 % of control | dose: 400.0 mg/kg/injection, schedule: Q01DX009 (ip), vehicle: saline with Tween-80 95 % of control

CC(=O)OCC1OC(Oc2ncccn2)C(OC(C)=O)C1OC(C)=O (stereo not drawn)
inactive: [9] 98 % of control | dose: 50.0 mg/kg/injection, schedule: Q01DX009 (ip), vehicle: suspension in saline 100 % of control | [10] 103 % of control | dose: 100.0 mg/kg/injection, schedule: Q01DX009 (ip), vehicle: suspension in saline 99 % of control | [11] 100 % of control | dose: 200.0 mg/kg/injection, schedule: Q01DX009 (ip), vehicle: suspension in saline 99 % of control | [12] 99 % of control | dose: 400.0 mg/kg/injection, schedule: Q01DX009 (ip), vehicle: suspension in saline 96 % of control

O=C(O)C(O)C(O)C(=O)O.O=C(O)C(O)C(O)C(=O)O.[O]=[V].[O]=[V] (stereo not drawn)
inactive: [6] 110 % of control | dose: 15.0 mg/kg/injection, schedule: Q01DX009 (ip), vehicle: saline 102 % of control | [8] 110 % of control | dose: 25.0 mg/kg/injection, schedule: Q04DX003 (ip), vehicle: saline sonified 100 % of control | dose: 30.0 mg/kg/injection, schedule: Q01DX009 (ip), vehicle: saline 106 % of control | dose: 50.0 mg/kg/injection, schedule: Q04DX003 (ip), vehicle: saline sonified 104 % of control

COc1ccc(/C=N\NC(=O)C(=O)N/N=C\c2ccc(OC)c(OC)c2)cc1OC
inactive: dose: 12.5 mg/kg/injection, schedule: Q01DX009 (ip), vehicle: Klucel (hydroxypropylcellulose) (HPC) 93 % of control | dose: 25.0 mg/kg/injection, schedule: Q01DX009 (ip), vehicle: Klucel (hydroxypropylcellulose) (HPC) 93 % of control | dose: 50.0 mg/kg/injection, schedule: Q01DX009 (ip), vehicle: Klucel (hydroxypropylcellulose) (HPC) 86 % of control and 88 % of control

CN(C)CCSc1cccc2c1C(=O)c1cccc(SCCN(C)C)c1C2=O
inactive: dose: 0.78 mg/kg/injection, schedule: Q01DX009 (ip), vehicle: saline 89 % of control | [13] 90 % of control | dose: 3.13 mg/kg/injection, schedule: Q01DX009 (ip), vehicle: saline 98 % of control | dose: 3.13 mg/kg/injection, schedule: Q01DX009 (ip), vehicle: water 105 % of control and 98 % of control | [5] 86 % of control | dose: 6.25 mg/kg/injection, schedule: Q01DX009 (ip), vehicle: water 99 % of control and 100 % of control | [6] 121 % of control | dose: 12.5 mg/kg/injection, schedule: Q01DX009 (ip), vehicle: water 101 % of control and 90 % of control | dose: 25.0 mg/kg/injection, schedule: Q01DX009 (ip), vehicle: water 100 % of control and 92 % of control | dose: 50.0 mg/kg/injection, schedule: Q01DX009 (ip), vehicle: water 90 % of control

CCOC(=O)/C=C1\CCC(C)n2c1nccc2=O (stereo not drawn)
inactive: dose: 60.0 mg/kg/injection, schedule: Q01DX005 (ip), vehicle: saline with Tween-80 97 % of control | dose: 120.0 mg/kg/injection, schedule: Q01DX005 (ip), vehicle: saline with Tween-80 101 % of control | dose: 240.0 mg/kg/injection, schedule: Q01DX005 (ip), vehicle: saline with Tween-80 98 % of control

CC1=NN(C(=O)NS(=O)(=O)c2ccc(CCNC(=O)c3nccnc3N)cc2)C(C)(C)C1
inactive: [1] 102 % of control | [2] 105 % of control | [3] 102 % of control

COc1cc2c(cc1OC)C13CCC(O)CC1=CC2(C)O3 (stereo not drawn)
inactive: dose: 50.0 mg/kg/injection, schedule: Q04DX002 (ip), vehicle: saline with Tween-80 96 % of control | [14] 96 % of control | [15] 89 % of control

CCc1nnc2c(c(=O)n(C)c(=O)n2C)[n+]1[O-]
inactive: dose: 20.0 mg/kg/injection, schedule: Q01DX001 (ip), vehicle: Klucel (hydroxypropylcellulose) (HPC) 106 % of control | dose: 40.0 mg/kg/injection, schedule: Q01DX001 (ip), vehicle: Klucel (hydroxypropylcellulose) (HPC) 106 % of control | dose: 80.0 mg/kg/injection, schedule: Q01DX001 (ip), vehicle: Klucel (hydroxypropylcellulose) (HPC) 112 % of control | [7] 109 % of control

Reference: PubChem BioAssay AID330 (DTP/NCI, 2004)
